Results as given in ChEMBL document CHEMBL3039007, “Structure-based identification of OATP1B1/3 inhibitors” (Mol Pharmacol, 2013).

Columns and labels:
[1] = target: T1, Solute carrier organic anion transporter family member 1B1 (Homo sapiens, UniProt Q9Y6L6); conditions: chinese hamster, cho, 10 µM
T1 sequence (Q9Y6L6 whole entry): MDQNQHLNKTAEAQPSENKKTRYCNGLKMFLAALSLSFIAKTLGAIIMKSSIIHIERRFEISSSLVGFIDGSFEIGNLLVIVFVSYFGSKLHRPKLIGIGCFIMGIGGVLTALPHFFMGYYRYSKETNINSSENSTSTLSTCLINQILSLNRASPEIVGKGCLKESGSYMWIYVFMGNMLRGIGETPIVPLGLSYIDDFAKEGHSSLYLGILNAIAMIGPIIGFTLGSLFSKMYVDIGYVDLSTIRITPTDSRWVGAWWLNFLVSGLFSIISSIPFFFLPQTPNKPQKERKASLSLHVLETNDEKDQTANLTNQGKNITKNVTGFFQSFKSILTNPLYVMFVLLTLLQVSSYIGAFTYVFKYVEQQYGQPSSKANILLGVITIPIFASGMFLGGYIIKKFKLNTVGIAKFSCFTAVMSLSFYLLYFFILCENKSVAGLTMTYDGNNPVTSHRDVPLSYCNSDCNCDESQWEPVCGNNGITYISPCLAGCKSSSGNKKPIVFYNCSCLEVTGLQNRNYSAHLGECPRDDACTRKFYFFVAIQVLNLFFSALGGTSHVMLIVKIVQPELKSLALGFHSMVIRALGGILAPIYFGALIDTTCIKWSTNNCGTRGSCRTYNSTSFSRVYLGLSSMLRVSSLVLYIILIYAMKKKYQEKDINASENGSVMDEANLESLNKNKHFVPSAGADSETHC

[2] = target: T2, Solute carrier organic anion transporter family member 1B3 (Homo sapiens, UniProt Q9NPD5); conditions: chinese hamster, cho, 10 µM
T2 sequence (Q9NPD5 whole entry): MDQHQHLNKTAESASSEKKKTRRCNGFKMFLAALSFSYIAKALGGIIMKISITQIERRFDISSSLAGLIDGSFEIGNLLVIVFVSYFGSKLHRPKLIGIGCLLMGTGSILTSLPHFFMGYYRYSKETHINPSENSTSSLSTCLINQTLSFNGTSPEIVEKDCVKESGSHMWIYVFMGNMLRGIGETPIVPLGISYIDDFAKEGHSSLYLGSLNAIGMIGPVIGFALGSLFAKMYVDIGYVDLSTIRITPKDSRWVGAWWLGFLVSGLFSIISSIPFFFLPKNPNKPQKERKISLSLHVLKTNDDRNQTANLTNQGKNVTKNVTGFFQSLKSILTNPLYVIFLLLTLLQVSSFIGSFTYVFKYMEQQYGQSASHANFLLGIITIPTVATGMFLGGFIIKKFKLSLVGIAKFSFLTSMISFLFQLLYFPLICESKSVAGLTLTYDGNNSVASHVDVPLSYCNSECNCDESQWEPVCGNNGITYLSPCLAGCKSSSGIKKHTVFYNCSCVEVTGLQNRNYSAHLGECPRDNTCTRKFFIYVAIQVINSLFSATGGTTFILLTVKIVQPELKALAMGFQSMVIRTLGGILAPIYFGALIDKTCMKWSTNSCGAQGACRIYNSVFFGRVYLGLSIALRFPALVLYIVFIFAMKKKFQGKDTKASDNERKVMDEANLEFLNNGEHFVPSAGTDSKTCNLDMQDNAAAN

CC(=O)Oc1c(-c2ccccc2)oc2c(CC=C(C)C)c3c(c(OC(C)=O)c2c1=O)C=CC(C)(C)O3 [SERICETIN DIACETATE]
residual activity [1]: 106.8% | residual activity [2]: 81.94%

NS(=O)(=O)c1cc(C(=O)O)c(NCc2ccco2)cc1Cl [FUROSEMIDE]
residual activity [1]: 86.58% | residual activity [2]: 90.27%

Cl.N=c1ccn2c(n1)O[C@H]1[C@H](O)[C@@H](CO)O[C@H]12 [ANCITABINE HYDROCHLORIDE]
residual activity [1]: 68.78% | residual activity [2]: 66.03%

CC[C@H](C)C(=O)O[C@H]1C[C@H](O)C=C2C=C[C@H](C)[C@H](CC[C@@H](O)C[C@@H](O)CC(=O)[O-])[C@H]21.[Na+] [PRAVASTATIN SODIUM]
residual activity [1]: 100.3% | residual activity [2]: 102.8%

CC1=CC2C(C(C)C)CC[C@@](C)(O)C2CC1 (stereo partly specified)
residual activity [1]: 80.24% | residual activity [2]: 88.94%

Nc1ccc(S(=O)(=O)[N-]c2cnc3ccccc3n2)cc1.[Na+] [SULFAQUINOXALINE SODIUM]
residual activity [1]: 73.75% | residual activity [2]: 102.9%

CC(C)(Oc1ccc(CCNC(=O)c2ccc(Cl)cc2)cc1)C(=O)O [BEZAFIBRATE]
residual activity [1]: 72.82% | residual activity [2]: 74.47%

CC(C)=CCc1c(O)cc2occ(-c3ccc4c(c3)OCO4)c(=O)c2c1O [DERRUBONE]
residual activity [1]: 115.1% | residual activity [2]: 106.9%

CCCCN(CCCC)CCCOC(=O)c1ccc(N)cc1 [BUTACAINE]
residual activity [1]: 93.87% | residual activity [2]: 114.4%

O=c1c(O)c(-c2ccccc2)oc2ccccc12 [FLAVONOL]
residual activity [1]: 133.5% | residual activity [2]: 102.6%

COC(=O)C[C@H]1C(C)(C)C(OC(C)=O)[C@]2(O)C=C3C4CC(=O)O[C@@H](c5ccoc5)[C@]4(C)CCC3[C@@]1(C)C2=O (stereo partly specified) [HUMILIN A]
residual activity [1]: 22.34% | residual activity [2]: 34.35%

COC(=O)/C(=C1/OC(=O)C(c2ccccc2)=C1O)c1ccccc1 [VULPINIC ACID]
residual activity [1]: 57.14% | residual activity [2]: 83.34%

O=C(O)CCCC[C@@H]1SC[C@@H]2NC(=O)N[C@@H]21 [BIOTIN]
residual activity [1]: 93.06% | residual activity [2]: 96.7%

NC(=O)c1ncn([C@@H]2O[C@H](CO)[C@@H](O)[C@H]2O)c1O [MIZORIBINE]
residual activity [1]: 113.4% | residual activity [2]: 100.4%

CC(C)C[C@H](CN)CC(=O)O [PREGABALIN]
residual activity [1]: 120.6% | residual activity [2]: 101.4%

O=C1O[C@H]([C@@H](O)CO)C(O)=C1O [ASCORBIC ACID]
residual activity [1]: 84.23% | residual activity [2]: 96.05%

O=C(O)c1cccnc1C(=O)O [QUINOLINIC ACID]
residual activity [1]: 103.9% | residual activity [2]: 104.2%

C=CCSCC1Nc2cc(Cl)c(S(N)(=O)=O)cc2S(=O)(=O)N1 (stereo unspecified) [ALTHIAZIDE]
residual activity [1]: 107.1% | residual activity [2]: 95.11%

O=C(O)c1nc2cc(Cl)c(Cl)cc2nc1O [6,7-DICHLORO-3-HYDROXY-2-QUINOXALINECARBOXYLIC ACID]
residual activity [1]: 119% | residual activity [2]: 108%

Cc1onc(-c2ccccc2)c1-c1ccc(S(N)(=O)=O)cc1 [VALDECOXIB]
residual activity [1]: 120.4% | residual activity [2]: 94.41%

C[C@]12CCC(=O)C=C1CC[C@@H]1[C@@H]2[C@@H](O)C[C@@]2(C)[C@H]1CC[C@]2(O)C(=O)CO [HYDROCORTISONE]
residual activity [1]: 98.24% | residual activity [2]: 113.8%

C/C=C(\C)C(=O)O[C@H]1C[C@@H](OC(C)=O)[C@@]2(C(=O)OC)CO[C@H]3[C@@H](O)[C@@](C)([C@]45O[C@@]4(C)[C@@H]4C[C@H]5O[C@@H]5OC=C[C@@]54O)[C@H]4[C@]1(CO[C@]4(O)C(=O)OC)[C@@H]32 [AZADIRACHTIN A]
residual activity [1]: 51.12% | residual activity [2]: 74.42%

CS(=O)(=O)OCCCCOS(C)(=O)=O [BUSULFAN]
residual activity [1]: 113.7% | residual activity [2]: 98.16%

COc1ccc2c(c1)[C@@]1(C)CC[C@@H](O)C[C@@H]1CC2 [12-METHOXY-4,4-BISNOR-5alpha-8,11,13-PODOCARPATRIEN-3-OL]
residual activity [1]: 95.25% | residual activity [2]: 91.61%

N#Cc1c(Cl)cccc1Cl [DICHLOBENIL]
residual activity [1]: 87.7% | residual activity [2]: 97.91%

COc1cc2ccc(=O)oc2c(O)c1O [FRAXETIN]
residual activity [1]: 68.87% | residual activity [2]: 106.2%

Cc1ccc(-c2cc(C(F)(F)F)nn2-c2ccc(S(N)(=O)=O)cc2)cc1 [CELECOXIB]
residual activity [1]: 108.3% | residual activity [2]: 142.8%

[N-]=[N+]=CC(=O)OC[C@H](N)C(=O)O [AZASERINE]
residual activity [1]: 100.4% | residual activity [2]: 107.6%

OC[C@@H](O)[C@@H](O[C@@H]1O[C@H](CO)[C@@H](O)[C@H](O)[C@H]1O)[C@H](O)[C@@H](O)CO [GLUCITOL-4-GUCOPYANOSIDE]
residual activity [1]: 90.99% | residual activity [2]: 90.65%

CCCc1cc(=O)[nH]c(=S)[nH]1 [PROPYLTHIOURACIL]
residual activity [1]: 79.91% | residual activity [2]: 90.71%

COc1ccc(CCN2CCC(Nc3nc4ccccc4n3Cc3ccc(F)cc3)CC2)cc1 [ASTEMIZOLE]
residual activity [1]: 127.5% | residual activity [2]: 97.68%

Cc1ccc(/N=C/N(C)/C=N/c2ccc(C)cc2C)c(C)c1 [AMITRAZ]
residual activity [1]: 108.2% | residual activity [2]: 87.86%

Cc1cc(C)cc(OCC2CNC(=O)O2)c1 (stereo unspecified) [METAXALONE]
residual activity [1]: 88.21% | residual activity [2]: 93.18%

CC(C)=CCOc1c2occc2cc2ccc(=O)oc12 [PENTOSALEN]
residual activity [1]: 222.8% | residual activity [2]: 131.4%

CC(=O)[C@@]1(O)CC[C@H]2[C@@H]3C=C(Cl)C4=CC(=O)[C@@H]5C[C@@H]5[C@]4(C)[C@H]3CC[C@@]21C [CYPROTERONE]
residual activity [1]: 30.6% | residual activity [2]: 112.2%

CCC(=O)OCC(=O)[C@]1(OC(=O)CC)[C@H](C)C[C@H]2[C@@H]3CCC4=CC(=O)C=C[C@]4(C)[C@@]3(F)[C@@H](O)C[C@]21C
residual activity [1]: 76.42% | residual activity [2]: 77.45%

C=CC(C)(O)CC/C=C(\C)CCC=C(C)C (stereo unspecified) [NEROLIDOL]
residual activity [1]: 147.7% | residual activity [2]: 131.1%

CC(=O)OC[C@H]1O[C@@H](Oc2cc(OC(C)=O)c3c(=O)cc(-c4ccc(OC(C)=O)cc4)oc3c2)[C@H](OC(C)=O)[C@@H](OC(C)=O)[C@@H]1OC(C)=O [COSMOSIIN HEXAACETATE]
residual activity [1]: 95.2% | residual activity [2]: 48.4%

O=C(O)Cc1nn(Cc2ccc(Br)cc2F)c(=O)c2ccccc12 [PONALRESTAT]
residual activity [1]: 139.9% | residual activity [2]: 83.62%

N[C@@H](C(=O)N[C@@H]1C(=O)N2C(C(=O)O)=C(Cl)CS[C@H]12)c1ccccc1 [CEFACLOR ANHYDROUS]
residual activity [1]: 84.74% | residual activity [2]: 114.4%

COP(=S)(OC)Oc1ccc([N+](=O)[O-])cc1 [METHYL PARATHIONE]
residual activity [1]: 107.9% | residual activity [2]: 100.2%

C[C@H](CCC(=O)O)[C@H]1CC[C@H]2[C@@H]3CC[C@@H]4CCCC[C@]4(C)[C@H]3CC[C@]12C [URSOCHOLANIC ACID]
residual activity [1]: 98.45% | residual activity [2]: 102.7%

Cn1c(=O)[nH]c(=O)c2[nH]cnc21 [3-METHYLXANTHINE]
residual activity [1]: 101.5% | residual activity [2]: 95.53%
